Results taken from US11780845B2 (Relay Therapeutics, Inc., priority 2019, dated 2023).

Molecular target: FGFR2 (Homo sapiens (Human), UniProt P21802)
Experiment: Biochemical FGFR2 Caliper assay
Conditions: not given

FGFR2, sequence (P21802 22-821): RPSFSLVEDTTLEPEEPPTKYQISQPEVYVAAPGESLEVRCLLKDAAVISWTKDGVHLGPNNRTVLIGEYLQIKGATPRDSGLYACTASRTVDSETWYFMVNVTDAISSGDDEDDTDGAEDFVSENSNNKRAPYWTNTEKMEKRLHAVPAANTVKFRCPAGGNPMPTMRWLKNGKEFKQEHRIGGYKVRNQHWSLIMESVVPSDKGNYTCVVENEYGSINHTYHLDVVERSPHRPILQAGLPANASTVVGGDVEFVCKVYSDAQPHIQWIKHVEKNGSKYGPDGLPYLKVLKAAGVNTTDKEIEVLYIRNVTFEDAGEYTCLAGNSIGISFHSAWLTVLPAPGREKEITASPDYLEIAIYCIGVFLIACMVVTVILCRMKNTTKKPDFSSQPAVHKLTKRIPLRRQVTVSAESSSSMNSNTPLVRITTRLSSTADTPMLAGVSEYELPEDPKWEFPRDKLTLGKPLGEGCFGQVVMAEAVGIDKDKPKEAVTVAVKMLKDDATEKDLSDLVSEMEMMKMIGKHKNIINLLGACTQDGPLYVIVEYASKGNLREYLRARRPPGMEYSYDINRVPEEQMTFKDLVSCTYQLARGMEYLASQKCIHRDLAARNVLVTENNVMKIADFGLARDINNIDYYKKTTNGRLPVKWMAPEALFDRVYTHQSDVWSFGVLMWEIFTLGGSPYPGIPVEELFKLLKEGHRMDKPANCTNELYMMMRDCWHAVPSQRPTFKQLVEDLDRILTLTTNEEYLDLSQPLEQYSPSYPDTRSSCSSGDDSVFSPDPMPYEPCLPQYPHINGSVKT

IC50	Structure (SMILES)
< 100 nM	C=CC(=O)Nc1ccc(-c2c(-c3ccc(Oc4nccc(C)n4)cc3)c3c(N)ncnc3n2C)c(Cl)c1 [Example 1054]
< 100 nM	C=C1CCN(c2ccc(-c3c(-c4ccc(Oc5nccc(C)n5)c(F)c4)c4c(N)ncnc4n3C)cc2)C1=O [Example 1110]
1000 to 100000 nM	C=CC(=O)N1CCC(c2c(-c3ccc(N4CCN(C)C4=O)cc3)c3c(N)ncnc3n2C)C1 (centres unmarked) [Example 805]
1000 to 100000 nM	C=C(C)C(=O)Nc1ccc(-c2c(-c3cnc4nncn4c3)c3c(N)ncnc3n2C)cc1 [Example 1351]
250 to 1000 nM	C=C(C)C(=O)Nc1ccc(-c2c(-c3cnn(-c4ccc(F)cc4)c3)c3c(N)ncnc3n2C)cc1 [Example 1285]
< 100 nM	C=CC(=O)N1CC(CO)C(c2c(-c3ccc(Oc4cccc(C)n4)cc3)c3c(N)ncnc3n2C)C1 (centres unmarked) [Example 814]
250 to 1000 nM	C=Cc1nc2ccc(-c3c(-c4ccc(Oc5nccc(C)n5)cc4)c4c(N)ncnc4n3C)cc2[nH]1 [Example 1048]
250 to 1000 nM	C=C(C)C(=O)Nc1ccc(-c2c(-c3ccc(Oc4nccc(C)n4)cc3)c3c(N)ncnc3n2C)c(C)c1Cl [Example 1071]
< 100 nM	Cc1ccnc(Oc2ccc(-c3c(-c4ccc(NC(=O)/C=C/CN(C)C)cc4)n(C)c4ncnc(N)c34)cc2F)n1 [Example 1013]
1000 to 100000 nM	C=C(C)C(=O)Nc1ccc(-c2c(-c3ccc(C(=O)N[C@H]4C[C@@H](F)C4)c(OC4CC4)c3)c3c(N)ncnc3n2C)cc1 [Example 976]
250 to 1000 nM	C=CC(=O)Nc1ccc(-c2c(-c3ccc(Oc4cccc(C)n4)cc3)c3c(N)ncnc3n2C)cc1 [Example 1050]
250 to 1000 nM	C=C(C)C(=O)N1CC=C(c2c(-c3ccc(Oc4cccc(C)n4)cc3)c3c(N)ncnc3n2C)[C@@H]1C (single isomer, unassigned) [Example 931]
< 100 nM	C#Cc1cc(C)c(-c2c(-c3ccc(Oc4nccc(C)n4)c(F)c3)c3c(N)ncnc3n2C)cn1 [Example 1439]
1000 to 100000 nM	C=C(C)C(=O)Nc1ccc(-c2c(-c3ccc4ncnn4c3)c3c(N)ncnc3n2C)cc1 [Example 1343]
1000 to 100000 nM	C=CC(=O)N1CC=C(c2cccc(-c3c(-c4ccc(Oc5cccc(C)n5)cc4)c4c(N)ncnc4n3C)c2)C1 [Example 1080]

More lines, now with the values behind:

Structure (SMILES)	IC50
C=C(C)C(=O)Nc1ccc(-c2c(C3=CC[C@H](C(=O)N4CCCC45COC5)CC3)c3c(N)ncnc3n2C)c(F)c1 [Example 1012]	250 to 1000 nM
C#Cc1ncc(-c2c(-c3ccc(Oc4nccc(C)n4)cn3)c3c(C)ncnc3n2C)c(C)c1F [Example 1488]	250 to 1000 nM
C=CS(=O)(=O)N1CCC(c2c(-c3ccc(C(=O)N4CCCC4)cc3)c3c(N)ncnc3n2C)C1 (centres unmarked) [Example 859]	1000 to 100000 nM
COCC#Cc1cc(C)c(-c2c(-c3ccc(Oc4nccc(C)n4)c(F)c3)c3c(C)ncnc3n2C)cn1 [Example 1374]	250 to 1000 nM
C#Cc1ncc(-c2c(-c3ccc(C(=O)NCC(F)(F)F)c(OC)c3)c3c(N)ncnc3n2C)c(C)c1F [Example 1260]	< 100 nM
C#Cc1nc2cc(-c3c(C4=CC[C@H](C(=O)N5CCC[C@H]5COC)CC4)c4c(N)ncnc4n3C)ccc2[nH]1 [Example 1346]	< 100 nM
C=C(C)C(=O)Nc1ccc(-c2c(-c3ccc(-n4cc(C)cn4)nc3)c3c(N)ncnc3n2C(C)C)cc1 [Example 1151]	100 to 250 nM
COCC#Cc1cc(OC)c(-c2c(-c3ccc(Oc4nccc(C)n4)c(F)c3)c3c(C)ncnc3n2C)cn1 [Example 1430]	< 100 nM
C#Cc1cc(C)c(-c2c(-c3ccc(Oc4nccc(C)n4)c(F)c3)c3c(Cl)ncnc3n2C)c(F)n1 [Example 1401]	< 100 nM
C=C(C)C(=O)Nc1ccc(-c2c(C3=CC[C@H](C(=O)N4CC[C@H]5C[C@H]54)CC3)c3c(N)ncnc3n2C)cc1 (single isomer, unassigned) [Example 1043]	< 100 nM
C#Cc1cc(C)c(-c2c(-c3ccc(Oc4nccc(C)n4)c(F)c3)c3c(C)ncnc3n2C)cn1 [Example 1163]	< 100 nM
C=C(C)C(=O)Nc1ccc(-c2cn3ncnc(N)c3c2-c2ccc(C(=O)NCC(F)(F)F)cc2)cc1 [Example 823]	100 to 250 nM
C#Cc1cc(OC)c(-c2c(-c3ncc(Oc4nccc(C)n4)cc3F)c3c(C)ncnc3n2C)cn1 [Example 1454]	< 100 nM

Tested on: SNU-16
Experiment: Cell SNU-16 assay
Format: cell-based
Conditions: Homo sapiens, SNU-16, SNU-16 cells

IC50	Structure (SMILES)
≤ 100 nM	C=CC(=O)Nc1ccc(-c2c(-c3ccc(Oc4nccc(C)n4)cc3)c3c(N)ncnc3n2C)c(Cl)c1 [Example 1054]
≤ 100 nM	C=C1CCN(c2ccc(-c3c(-c4ccc(Oc5nccc(C)n5)c(F)c4)c4c(N)ncnc4n3C)cc2)C1=O [Example 1110]
250 to 1000 nM	C=CC(=O)N1CCC(c2c(-c3ccc(N4CCN(C)C4=O)cc3)c3c(N)ncnc3n2C)C1 (centres unmarked) [Example 805]
1000 to 100000 nM	C=C(C)C(=O)Nc1ccc(-c2c(-c3cnc4nncn4c3)c3c(N)ncnc3n2C)cc1 [Example 1351]
1000 to 100000 nM	C=C(C)C(=O)Nc1ccc(-c2c(-c3cnn(-c4ccc(F)cc4)c3)c3c(N)ncnc3n2C)cc1 [Example 1285]
≤ 100 nM	C=CC(=O)N1CC(CO)C(c2c(-c3ccc(Oc4cccc(C)n4)cc3)c3c(N)ncnc3n2C)C1 (centres unmarked) [Example 814]
100 to 250 nM	C=Cc1nc2ccc(-c3c(-c4ccc(Oc5nccc(C)n5)cc4)c4c(N)ncnc4n3C)cc2[nH]1 [Example 1048]
≤ 100 nM	C=C(C)C(=O)Nc1ccc(-c2c(-c3ccc(Oc4nccc(C)n4)cc3)c3c(N)ncnc3n2C)c(C)c1Cl [Example 1071]
≤ 100 nM	Cc1ccnc(Oc2ccc(-c3c(-c4ccc(NC(=O)/C=C/CN(C)C)cc4)n(C)c4ncnc(N)c34)cc2F)n1 [Example 1013]
1000 to 100000 nM	C=C(C)C(=O)Nc1ccc(-c2c(-c3ccc(C(=O)N[C@H]4C[C@@H](F)C4)c(OC4CC4)c3)c3c(N)ncnc3n2C)cc1 [Example 976]
250 to 1000 nM	C=CC(=O)Nc1ccc(-c2c(-c3ccc(Oc4cccc(C)n4)cc3)c3c(N)ncnc3n2C)cc1 [Example 1050]
1000 to 100000 nM	C=C(C)C(=O)N1CC=C(c2c(-c3ccc(Oc4cccc(C)n4)cc3)c3c(N)ncnc3n2C)[C@@H]1C (single isomer, unassigned) [Example 931]
1000 to 100000 nM	C=C(C)C(=O)Nc1ccc(-c2c(-c3ccc4ncnn4c3)c3c(N)ncnc3n2C)cc1 [Example 1343]
1000 to 100000 nM	C=CC(=O)N1CC=C(c2cccc(-c3c(-c4ccc(Oc5cccc(C)n5)cc4)c4c(N)ncnc4n3C)c2)C1 [Example 1080]

Continued, molecule first:

Structure (SMILES)	IC50
C=C(C)C(=O)Nc1ccc(-c2c(C3=CC[C@H](C(=O)N4CCCC45COC5)CC3)c3c(N)ncnc3n2C)c(F)c1 [Example 1012]	100 to 250 nM
C#Cc1ncc(-c2c(-c3ccc(Oc4nccc(C)n4)cn3)c3c(C)ncnc3n2C)c(C)c1F [Example 1488]	250 to 1000 nM
C=CS(=O)(=O)N1CCC(c2c(-c3ccc(C(=O)N4CCCC4)cc3)c3c(N)ncnc3n2C)C1 (centres unmarked) [Example 859]	1000 to 100000 nM
COCC#Cc1cc(C)c(-c2c(-c3ccc(Oc4nccc(C)n4)c(F)c3)c3c(C)ncnc3n2C)cn1 [Example 1374]	100 to 250 nM
C#Cc1ncc(-c2c(-c3ccc(C(=O)NCC(F)(F)F)c(OC)c3)c3c(N)ncnc3n2C)c(C)c1F [Example 1260]	≤ 100 nM
C#Cc1nc2cc(-c3c(C4=CC[C@H](C(=O)N5CCC[C@H]5COC)CC4)c4c(N)ncnc4n3C)ccc2[nH]1 [Example 1346]	250 to 1000 nM
C=C(C)C(=O)Nc1ccc(-c2c(-c3ccc(-n4cc(C)cn4)nc3)c3c(N)ncnc3n2C(C)C)cc1 [Example 1151]	250 to 1000 nM
COCC#Cc1cc(OC)c(-c2c(-c3ccc(Oc4nccc(C)n4)c(F)c3)c3c(C)ncnc3n2C)cn1 [Example 1430]	≤ 100 nM
C#Cc1cc(C)c(-c2c(-c3ccc(Oc4nccc(C)n4)c(F)c3)c3c(Cl)ncnc3n2C)c(F)n1 [Example 1401]	≤ 100 nM
C=C(C)C(=O)Nc1ccc(-c2c(C3=CC[C@H](C(=O)N4CC[C@H]5C[C@H]54)CC3)c3c(N)ncnc3n2C)cc1 (single isomer, unassigned) [Example 1043]	≤ 100 nM
C#Cc1cc(C)c(-c2c(-c3ccc(Oc4nccc(C)n4)c(F)c3)c3c(C)ncnc3n2C)cn1 [Example 1163]	≤ 100 nM
C=C(C)C(=O)Nc1ccc(-c2cn3ncnc(N)c3c2-c2ccc(C(=O)NCC(F)(F)F)cc2)cc1 [Example 823]	250 to 1000 nM
C#Cc1cc(OC)c(-c2c(-c3ncc(Oc4nccc(C)n4)cc3F)c3c(C)ncnc3n2C)cn1 [Example 1454]	≤ 100 nM

Same assay, conditions: SNU-16 cells

IC50	Structure (SMILES)
≤ 100 nM	C#Cc1cc(C)c(-c2c(-c3ccc(Oc4nccc(C)n4)c(F)c3)c3c(N)ncnc3n2C)cn1 [Example 1439]
